Assay results taken from ChEMBL document CHEMBL3046109, “A Method for Monitoring the Sensitivity of Botrytis cinerea to Mepanipyrim” (2004).

Experiments:
Type in all cases: functional
[1] = test system: Botrytis cinerea; assay: Fungicidal activity against anilinopyrimidine-resistant Botryotinia fuckeliana CH164.94 isolated from grape plant assessed as inhibition of mycelial growth at 3 mg/l after 4 days; conditions: CH164.94, 96 h, read-out: GI
[2] = test system: Botrytis cinerea; assay: Fungicidal activity against anilinopyrimidine-resistant Botryotinia fuckeliana CH15.93 isolated from grape plant assessed as inhibition of mycelial growth at 30 mg/l after 4 days; conditions: CH15.93, 96 h, read-out: GI
[3] = test system: Botrytis cinerea; assay: Fungicidal activity against anilinopyrimidine-sensitive Botryotinia fuckeliana KU-01 infected in strawberry fruit assessed as inhibition of mycelial growth at 50 mg/l treated 2-3 hr before challenge measured after 5 days; conditions: read-out: GI
[4] = test system: Botrytis cinerea; assay: Fungicidal activity against anilinopyrimidine-sensitive Botryotinia fuckeliana KU-01 isolated from grape plant assessed as inhibition of mycelial growth at 100 mg/l after 4 days; conditions: KU-01, 96 h, read-out: GI
[5] = test system: Botrytis cinerea; assay: Fungicidal activity against anilinopyrimidine-sensitive Botryotinia fuckeliana KU-01 isolated from grape plant assessed as inhibition of mycelial growth at 30 mg/l after 4 days; conditions: KU-01, 96 h, read-out: GI
[6] = test system: Botrytis cinerea; assay: Fungicidal activity against anilinopyrimidine-sensitive Botryotinia fuckeliana KU-01 isolated from grape plant assessed as inhibition of mycelial growth at 3 mg/l after 4 days; conditions: KU-01, 96 h, read-out: GI
[7] = test system: Botrytis cinerea; assay: Fungicidal activity against anilinopyrimidine-sensitive Botryotinia fuckeliana KU-01 infected in strawberry fruit assessed as inhibition of mycelial growth at 100 mg/l treated 2-3 hr before challenge measured after 5 days; conditions: read-out: GI
[8] = test system: Botrytis cinerea; assay: Fungicidal activity against anilinopyrimidine-resistant Botryotinia fuckeliana CH12.92 isolated from grape plant assessed as inhibition of mycelial growth at 30 mg/l after 4 days; conditions: CH12.92, 96 h, read-out: GI
[9] = test system: Botrytis cinerea; assay: Fungicidal activity against anilinopyrimidine-resistant Botryotinia fuckeliana CH12.92 isolated from grape plant assessed as inhibition of mycelial growth at 10 mg/l after 4 days; conditions: CH12.92, 96 h, read-out: GI
[10] = test system: Botrytis cinerea; assay: Fungicidal activity against anilinopyrimidine-resistant Botryotinia fuckeliana CH12.92 isolated from grape plant assessed as inhibition of mycelial growth at 1 mg/l after 4 days; conditions: CH12.92, 96 h, read-out: GI
[11] = test system: Botrytis cinerea; assay: Fungicidal activity against anilinopyrimidine-resistant Botryotinia fuckeliana CH15.93 infected in strawberry fruit assessed as inhibition of mycelial growth at 50 mg/l treated 2-3 hr before challenge measured after 5 days; conditions: read-out: GI
[12] = test system: Botrytis cinerea; assay: Fungicidal activity against anilinopyrimidine-sensitive Botryotinia fuckeliana KU-59 isolated from grape plant assessed as inhibition of mycelial growth at 100 mg/l after 4 days; conditions: KU-59, 96 h, read-out: GI
[13] = test system: Botrytis cinerea; assay: Fungicidal activity against anilinopyrimidine-sensitive Botryotinia fuckeliana KU-59 infected in strawberry fruit assessed as inhibition of mycelial growth at 200 mg/l treated 2-3 hr before challenge measured after 5 days; conditions: read-out: GI
[14] = test system: Botrytis cinerea; assay: Fungicidal activity against anilinopyrimidine-sensitive Botryotinia fuckeliana KU-59 isolated from grape plant assessed as inhibition of mycelial growth at 0.3 mg/l after 4 days; conditions: KU-59, 96 h, read-out: GI
[15] = test system: Botrytis cinerea; assay: Fungicidal activity against anilinopyrimidine-resistant Botryotinia fuckeliana CH12.92 isolated from grape plant assessed as inhibition of mycelial growth at 3 mg/l after 4 days; conditions: CH12.92, 96 h, read-out: GI
[16] = test system: Botrytis cinerea; assay: Fungicidal activity against anilinopyrimidine-resistant Botryotinia fuckeliana CH15.93 isolated from grape plant assessed as inhibition of mycelial growth at 1 mg/l after 4 days; conditions: CH15.93, 96 h, read-out: GI
[17] = test system: Botrytis cinerea; assay: Fungicidal activity against anilinopyrimidine-sensitive Botryotinia fuckeliana KU-01 isolated from grape plant assessed as inhibition of mycelial growth at 10 mg/l after 4 days; conditions: KU-01, 96 h, read-out: GI
[18] = test system: Botrytis cinerea; assay: Fungicidal activity against anilinopyrimidine-sensitive Botryotinia fuckeliana KU-59 isolated from grape plant assessed as inhibition of mycelial growth at 1 mg/l after 4 days; conditions: KU-59, 96 h, read-out: GI
[19] = test system: Botrytis cinerea; assay: Fungicidal activity against anilinopyrimidine-sensitive Botryotinia fuckeliana KU-01 infected in strawberry fruit assessed as inhibition of mycelial growth at 200 mg/l treated 2-3 hr before challenge measured after 5 days; conditions: read-out: GI
[20] = test system: Botrytis cinerea; assay: Fungicidal activity against anilinopyrimidine-resistant Botryotinia fuckeliana CH12.92 isolated from grape plant assessed as inhibition of mycelial growth at 0.3 mg/l after 4 days; conditions: CH12.92, 96 h, read-out: GI
[21] = test system: Botrytis cinerea; assay: Fungicidal activity against anilinopyrimidine-sensitive Botryotinia fuckeliana KU-59 infected in strawberry fruit assessed as inhibition of mycelial growth at 100 mg/l treated 2-3 hr before challenge measured after 5 days; conditions: read-out: GI
[22] = test system: Botrytis cinerea; assay: Fungicidal activity against anilinopyrimidine-resistant Botryotinia fuckeliana CH164.94 isolated from grape plant assessed as inhibition of mycelial growth at 0.3 mg/l after 4 days; conditions: CH164.94, 96 h, read-out: GI
[23] = test system: Botrytis cinerea; assay: Fungicidal activity against anilinopyrimidine-resistant Botryotinia fuckeliana CH164.94 isolated from grape plant assessed as inhibition of mycelial growth at 1 mg/l after 4 days; conditions: CH164.94, 96 h, read-out: GI
[24] = test system: Botrytis cinerea; assay: Fungicidal activity against anilinopyrimidine-resistant Botryotinia fuckeliana CH15.93 isolated from grape plant assessed as inhibition of mycelial growth at 0.3 mg/l after 4 days; conditions: CH15.93, 96 h, read-out: GI
[25] = test system: Botrytis cinerea; assay: Fungicidal activity against anilinopyrimidine-resistant Botryotinia fuckeliana CH12.92 isolated from grape plant assessed as inhibition of mycelial growth at 100 mg/l after 4 days; conditions: CH12.92, 96 h, read-out: GI

CC#Cc1cc(C)nc(Nc2ccccc2)n1 [MEPANIPYRIM]
inhibition of growth at 3 µg/mL [1]: 57.9% | inhibition of growth at 30 µg/mL [2]: 74.1% | inhibition of growth at 50 µg/mL [3]: 100% | inhibition of growth at 100 µg/mL [4]: 100% | inhibition of growth at 30 µg/mL [5]: 100% | inhibition of growth at 3 µg/mL [6]: 100% | inhibition of growth at 100 µg/mL [7]: 100% | inhibition of growth at 30 µg/mL [8]: 63.2% | inhibition of growth at 10 µg/mL [9]: 65.7% | inhibition of growth at 1 µg/mL [10]: 42.6% | inhibition of growth at 50 µg/mL [11]: 0% | inhibition of growth at 100 µg/mL [12]: 100% | inhibition of growth at 200 µg/mL [13]: 100% | inhibition of growth at 0.3 µg/mL [14]: 100% | inhibition of growth at 3 µg/mL [15]: 60.1% | inhibition of growth at 1 µg/mL [16]: 34.9% | inhibition of growth at 10 µg/mL [17]: 100% | inhibition of growth at 1 µg/mL [18]: 100% | inhibition of growth at 200 µg/mL [19]: 100% | inhibition of growth at 0.3 µg/mL [20]: 19.8% | inhibition of growth at 100 µg/mL [21]: 100% | inhibition of growth at 0.3 µg/mL [22]: 0% | inhibition of growth at 1 µg/mL [23]: 38.3% | inhibition of growth at 0.3 µg/mL [24]: 0% | inhibition of growth at 100 µg/mL [25]: 70.4%
